Values joined by “and” are separate entries in the source; they are usually repeats but may differ in a detail not shown here. Identical values can stand only once. Like-named read-outs stand apart in the source and are kept apart here. Marks after values point to notes of the source that are not given here.
Columns and labels:
tyrosine kinase A (TrkA) = biological target: T1, tyrosine kinase A (TrkA) (Mus musculus, UniProt Q3UFB7); test: Tyrosine kinase A phosphorylation in HT-22 cells (Western blot); assay type: cell-based; details: first minute of exposure
T1 construct: phosphorylation of tyrosine kinase A in cultured hippocampal neuronal cell line HT22; endogenous in cells; host or cells: HT-22 hippocampal neuronal cell line
Method: (§1) The amount of Hsp70, Hsp32 and pTrkA was determined in the cytoplasmic fraction of HT-22 neuronal cells. For heat shock proteins, a test compound was added to the culture 24 hours prior to testing, before the cells were washed off the culture liquid with PBS. For pTrkA, a test compound was added to the culture immediately prior to the cell lysis just for 1 or 2 min, before the cells were washed off the culture liquid with PBS. Then the cells were mixed with the lysis buffer (50 mM Tris-HCl, 5 mM EDTA, 1 mM DTT, 1% Triton X-100, pH 7.5) at 4° C. and lysed for 5 min, then scraped off, transferred into a 1.5 ml centrifuge tube and centrifuged at 13000 rpm and 4° C. for 10 min. The supernatant containing cytosolic proteins was assayed by electrophoresis and immunoblotting. Proteins were separated on a 10% polyacrylamide gel (PAAG) and transferred from PAAG onto a PVDF membrane by electroelution for 45 min. Western blots were pre-incubated for 1 h in a TBST solution containing 1% Tween-20 and supplemented with 5% (w/v) skim milk. Western blots were then incubated with the primary polyclonal anti-Hsp32 antibody diluted 1:1000 or primary monoclonal anti-Hsp70 antibody diluted 1:1000 or primary monoclonal anti-phosphorylated tyrosine kinase A antibody diluted 1:1000 for 1 hour. Then the blots were washed and incubated with a secondary antibody conjugated to horseradish peroxidase (diluted 1:2000) for 1 hour. The detection of Hsp70, Hsp32 and pTrkA was carried out by the ECL reaction on a Kodak film.

[1] = system: rats with photothrombosis of the prefrontal cortex; details: 1 mg/kg i.p.
Method: The test substance was administered intraperitoneally at a dose of 1 mg/kg using the following regimen: at 1 h after surgery, at 24 h after the first administration, at 4 days and 6 days after the first administration.
A bilateral focal ischemic infarction of the prefrontal cortex of the rat brain (the Fr1 and Fr2 fields according to the atlas of Paxinos and Watson, 1986) was produced by the photoinduced thrombosis method (Watson et al., 1985). Animals were anesthetized with chloral hydrate (300 mg/kg i.p.). The photosensitive dye Bengal red (Sigma Chemical Co.) was injected into the jugular vein (3% solution, 40 mg/kg). The animal's head was clamped in the stereotaxis device, and the periosteum was removed after a longitudinal incision of the skin.
A light guide (the output light beam diameter 3 mm) was placed at a distance of 1 mm from the skull surface using the following coordinates: 2.00 mm rostral of the bregma and 2.00 mm lateral of the sagittal suture. Cold light illumination (a xenon lamp source, 25 V, 250 W) was carried out for 15 min at either side. […] To assess their functional status, the animals were evaluated for their motor activity (MA) in a RODEO-1 automatic unit with an observation time of 5 min. The MA was analyzed before and at 9 days after the photothrombosis of the prefrontal cortex.

HT-22 neuronal cell line = test: Viability of HT-22 neuronal cell line without damaging factors (MTT test); assay type: cell-based, mouse; details: added at plating and every 24 h for 10 days, control 0.283 ± 0.039
Method: The rat adrenal […] pheochromocytoma cell line PC12 was obtained from the Cell Culture Museum, RAN Institute of Molecular Genetics. The immortalized mouse hippocampal cell line HT-22 was a gift from Prof. F. Viegant, Utrecht University, the Netherlands.
The cells were grown in DMEM medium containing 5% FBS and 2 mM L-glutamine. The cells were incubated at 37° C. and 5% CO2. The growth medium was changed at 24 hours after inoculation and every 3 days thereafter. The cells were re-plated every week into culture flasks with a total area of 75 cm^2.
All types of cells were plated in DMEM medium.

HT-22 cells = test: Oxidative stress (H2O2) model in cultured HT-22 cells (MTT test); assay type: cell-based, mouse
Method: To induce an oxidative stress, the cells were placed in a growth medium containing 5% FBS, then a freshly prepared H2O2 solution was added to a final concentration of 1.5 mM and incubated for 30 min at 37° C. and 5% CO2. Thereafter, the medium was replaced with a new one and the cells were cultured for 4 h under the same conditions.
The determination of cell viability was carried out by MTT test. […] At the end of an experiment the growth medium was replaced with an MTT solution (0.5 mg/ml) and incubated for 30 min at 37° C. and 5% CO2. The MTT solution was then removed from the wells and DMSO was added to dissolve the formazan precipitate. Then the optical density was measured using a Multiscan (Thermo) spectrophotometer at a wavelength of 600 nm.

[2] = system: rats with ischemic cerebral infarction; details: 7 days after surgery; 1 mg/kg i.p. x3
rats [3] = details: 1.0 mg/kg i.p. 24 h prior to apomorphine (pretreatment); FIG. 2.10
Method: The control group was treated with distilled water according to the same regimen.

[4] = system: rats with ischemic cerebral infarction; details: 1 mg/kg i.p. x3
Hsp70 = test: Western blot of Hsp70 in HT-22 cells; assay type: cell-based, mouse; details: 24 h after addition; GK-1, GK-2 10^−8 and 10^−5 M; GK-3 10^−6 M; GK-4 10^−7 M; GK-5 10^−6 M
Method: as §1

rats [5] = system: rats
Method: The experiments were conducted on white male outbred rats weighing 250-280 g. Haloperidol (1.0 mg/kg i.p.), a D1/D2 dopamine receptor blocker, was used to induce catalepsy. The intensity of catalepsy was assessed by measuring the time during which the animal maintained an assumed posture. The measurements were performed 60 minutes after the haloperidol injection. The test compound was administered intraperitoneally at selected doses (0.01, 0.1, 1.0 and 5.0 mg/kg) 24 hours prior to haloperidol. Control animals were treated with an equivalent volume of distilled water. Statistical data treatment was carried out using the exact Fisher test.

Wistar rats = details: 1.0 mg/kg i.p. 24 h prior to scopolamine 1.0 mg/kg s.c.; FIG. 2.11
Method: Male Wistar rats weighing 190-220 g were used for this experiment. The test compound was administered intraperitoneally at a dose of 1.0 mg/kg at 24 hours prior to the scopolamine injection (1.0 mg/kg s.c.). The control group was treated with distilled water according to the same regimen. Scopolamine was injected 60 min before placing the animals in a T-shaped maze. Following a further 120 min the animals were subjected to testing in accordance with the original protocol (Deacon R. M. J., Rawlins J. N. P. T-maze alternation in the rodent. Nature Protocols, 2006, 1(1), 7-12).

T1 sequence (Q3UFB7 34-799): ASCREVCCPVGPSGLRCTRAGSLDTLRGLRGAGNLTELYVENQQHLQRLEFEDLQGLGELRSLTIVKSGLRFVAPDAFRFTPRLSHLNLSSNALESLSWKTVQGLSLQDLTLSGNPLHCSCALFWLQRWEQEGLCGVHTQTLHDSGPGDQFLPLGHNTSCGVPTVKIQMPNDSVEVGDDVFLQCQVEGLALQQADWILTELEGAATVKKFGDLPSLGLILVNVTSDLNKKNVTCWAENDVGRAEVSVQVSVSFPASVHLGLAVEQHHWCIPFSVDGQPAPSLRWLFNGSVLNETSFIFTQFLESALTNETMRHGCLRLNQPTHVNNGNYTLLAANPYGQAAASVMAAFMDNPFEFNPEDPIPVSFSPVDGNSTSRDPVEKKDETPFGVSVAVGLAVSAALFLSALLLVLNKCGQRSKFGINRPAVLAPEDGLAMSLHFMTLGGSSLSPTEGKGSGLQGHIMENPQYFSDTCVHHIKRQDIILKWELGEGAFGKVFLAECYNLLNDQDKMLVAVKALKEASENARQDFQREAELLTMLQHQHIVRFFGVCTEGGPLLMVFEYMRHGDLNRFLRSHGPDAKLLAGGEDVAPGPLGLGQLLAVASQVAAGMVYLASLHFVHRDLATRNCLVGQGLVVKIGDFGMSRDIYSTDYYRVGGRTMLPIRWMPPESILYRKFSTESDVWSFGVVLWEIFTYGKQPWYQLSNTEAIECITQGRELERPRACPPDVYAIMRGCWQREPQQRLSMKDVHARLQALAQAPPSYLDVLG

NCCCC[C@H](NC(=O)[C@H](CCC(=O)O)NC(=O)CCC(=O)O)C(=O)NCCCCCCNC(=O)[C@H](CCCCN)NC(=O)[C@H](CCC(=O)O)NC(=O)CCC(=O)O [GK-2, bis-(N-monosuccinyl-glutamyl-lysine) hexamethylenediamide]
level of phosphorylated tyrosine kinase A (tyrosine kinase A (TrkA)): increased
lesion volume (left and right hemispheres, per rat, mean) ([1]; FIG. 2.4): reduced
protection effectiveness rate (PER) ([1]; PER=(V0−Vs)/V0×100%): 61%
Optical density (MTT) (HT-22 neuronal cell line; 10^−5M): 0.357 ± 0.051
Optical density (MTT) (HT-22 neuronal cell line; 10^−8M): 0.375 ± 0.063
Optical density (MTT) (HT-22 cells): 0.324 ± 0.070^ and 0.345 ± 0.065^
effect when added immediately after the oxidative stress exposure (HT-22 cells; 10^−8 M to 10^−5 M): therapeutic effect
Optical density (MTT) (HT-22 cells; Table 1.4, 10^−5M, 24 h before H2O2, control 0.427 ± 0.071, H2O2 0.350 ± 0.052): 0.422 ± 0.063^
Optical density (MTT) (HT-22 cells; Table 1.4, 10^−8M, 24 h before H2O2, control 0.427 ± 0.071, H2O2 0.350 ± 0.052): 0.501 ± 0.109^
Optical density (MTT) (HT-22 cells; Table 1.4, 10^−9M, 24 h before H2O2, control 0.427 ± 0.071, H2O2 0.350 ± 0.052): 0.516 ± 0.068^
neuronal survival under oxidative stress (HT-22 cells; added 24 hours prior to the stress exposure, 10^−8 M to 10^−5 M): improved the neuronal survival
reduction in use of the affected limb and simultaneous use of 2 forelimbs [2]: much less pronounced
intensity of apomorphine-induced oral stereotypy (rats [3]): enhanced the intensity
limb-placing test score ([4]; day 4 post-ischemia, ischemic rats 3.00±0.38, intact 14): 5.90±0.62
limb-placing test score ([4]; day 7 post-ischemia, ischemic rats 4.46±0.40, intact 14): 7.67±0.75
amount of Hsp70 (Hsp70): increase
Intensity of catalepsy (% of control) (rats [5]; 0.01 mg/kg i.p. 24 h prior to haloperidol 1.0 mg/kg i.p., measured 60 min after haloperidol): 14* % of control
Intensity of catalepsy (% of control) (rats [5]; 0.1 mg/kg i.p. 24 h prior to haloperidol): 98 % of control
Intensity of catalepsy (% of control) (rats [5]; 1.0 mg/kg i.p. 24 h prior to haloperidol): 25* % of control
Intensity of catalepsy (% of control) (rats [5]; 5.0 mg/kg i.p. 24 h prior to haloperidol): 13* % of control
scopolamine-induced working memory impairment (spontaneous alternation, T-maze) (Wistar rats): could prevent

Source: US9683014B2, “Dipeptide mimetics of NGF and BDNF neurotrophins” (UCHREZHDENIE ROSSIISKOI AKADEMII MEDITSYNSKIKH NAUK …, priority 2009, dated 2017)
